Results taken from patent US20240101576A1, “HETEROCYCLIC INHIBITORS OF EGFR AND/OR HER2, FOR USE IN THE TREATMENT OF CANCER” (Scorpion Therapeutics, Inc., priority 2020, published 2024).

Assays:
Assay type in all cases: cell-based
EGFR WT (Ba/F3 cells) = target: T1, EGFR WT (Ba/F3 cells) (Homo sapiens, UniProt P00533); assay: Inhibitor activity on EGFR-dependent cell growth (CellTiter-Glo, 72 h), Ba/F3 EGFR WT; details: read-out: BaF3 WT IC50
T1 construct: expressed in transfected cells; host or cells: Ba/F3 (murine pro-B cells), retroviral transduction, puromycin selection, maintained with EGF
Excerpt: (§1) Example A. Inhibitor Activity on EGFR-Dependent Cell Growth
(§2) Cell lines are generated by transducing Ba/F3 cells with retroviruses containing vectors with EGFR WT, EGFR L858R, EGFR exon 19del, EGFR L858R/C797S, EGFR exon 20 NPG Ins D770_N771, EGFR exon 20 ASV Ins V769_D770, EGFR exon 20 SVD Ins D770_N771, or EGFR exon 20 FQEA Ins A763_V764 genes and a puromycin selection marker. Transduced cells are selected with puromycin for 7 days and are then be transferred into culture media without Interleukin 3 (IL3). EGFR WT cells are maintained with supplemental EGF. Surviving cells are confirmed to express EGFR by Western blot and maintained as a pool. The IC50 date were included in Table 6 and Table 7.
(§3) 1.1 Cells are harvested from flask into cell culture medium and the cell number counted.
(§4) 1.2 Cells are diluted with culture medium to the desired density and 40 μL of cell suspension is added into each well of 384-well cell culture plate and the seeding density is 800 (FQEA, exon 19del), 600 (WT, NPG, L858R/C797S), or 400 (ASV, SVD, L858R) cells/well.
(§5) 2 Compound Preparation and Treatment
(§6) 2.1 Test compounds are dissolved to 10 mM in a DMSO stock solution. 45 μL of stock solution is transferred to a 384 polypropylene plate (pp-plate). Perform 3-fold, 10-point dilution via transferring 15 μL compound into 30 μL DMSO using a TECAN (EVO200) liquid handler.
(§7) 2.2 Spin plates at room temperature at 1,000 RPM for 1 minute.
(§8) 2.3 Transfer 120 nL of diluted compound from compound source plate into the cell plate.
(§9) 2.4 After compound treatment for 72 hours, perform CTG detection for compound treatment plates as described in “Detection” section.
(§10) 3.1 Plates are removed from incubators and equilibrated at room temperature for 15 minutes.
(§11) 3.2 Thaw the CellTiter Glo reagents and allow to equilibrate to room temperature before the experiment.
(§12) 3.3 Add 40 μL of CellTiter-Glo reagent into each well (at 1:1 to culture medium). Then place the plates at room temperature for 30 min followed by reading on EnVision.
(§13) 4.1 Inhibition activity is calculated following the formula below:
(§14) % Inhibition=100×(LumHC−LumSample)/(LumHC−LumLC) • where HC is obtained from cells treated with 0.1% DMSO only; and LC is obtained from culture medium only.
(§15) 4.2 2. Calculate the IC50 by fitting the Curve using Xlfit (v5.3.1.3), equation 201.
(§16) Y=Bottom+(Top−Bottom)/(1+10^((Log IC50−X)*HillSlope))

[1] = target: T2, EGFR exon 20 ASV Ins V769_D770 (Ba/F3 cells) (Homo sapiens, UniProt P00533, INS769ASV); assay: Inhibitor activity on EGFR-dependent cell growth (CellTiter-Glo, 72 h), Ba/F3 EGFR exon 20 ASV Ins; details: read-out: BaF3 ASV IC50
T2 construct: expressed in transfected cells; host or cells: Ba/F3 (murine pro-B cells), retroviral transduction, puromycin selection, IL3-independent pool
Excerpt: as §1, §2, §3, §4, §5, §6, §7, §8, §9, §10, §11, §12, §13, §14, §15, §16

[2] = target: T3, EGFR exon 20 SVD Ins D770_N771 (Ba/F3 cells) (Homo sapiens, UniProt P00533, INS770SVD); assay: Inhibitor activity on EGFR-dependent cell growth (CellTiter-Glo, 72 h), Ba/F3 EGFR exon 20 SVD Ins; details: read-out: BaF3 SVD IC50
T3 construct: expressed in transfected cells; host or cells: Ba/F3 (murine pro-B cells), retroviral transduction, puromycin selection, IL3-independent pool
Excerpt: as §1, §2, §3, §4, §5, §6, §7, §8, §9, §10, §11, §12, §13, §14, §15, §16

[3] = target: T4, EGFR exon 20 FQEA Ins A763_V764 (Ba/F3 cells) (Homo sapiens, UniProt P00533, INS763FQEA); assay: Inhibitor activity on EGFR-dependent cell growth (CellTiter-Glo, 72 h), Ba/F3 EGFR exon 20 FQEA Ins; details: read-out: BaF3 FQEA IC50
T4 construct: expressed in transfected cells; host or cells: Ba/F3 (murine pro-B cells), retroviral transduction, puromycin selection, IL3-independent pool
Excerpt: as §1, §2, §3, §4, §5, §6, §7, §8, §9, §10, §11, §12, §13, §14, §15, §16

T4 sequence (P00533 with tags, fused parts or gaps INS763FQEA): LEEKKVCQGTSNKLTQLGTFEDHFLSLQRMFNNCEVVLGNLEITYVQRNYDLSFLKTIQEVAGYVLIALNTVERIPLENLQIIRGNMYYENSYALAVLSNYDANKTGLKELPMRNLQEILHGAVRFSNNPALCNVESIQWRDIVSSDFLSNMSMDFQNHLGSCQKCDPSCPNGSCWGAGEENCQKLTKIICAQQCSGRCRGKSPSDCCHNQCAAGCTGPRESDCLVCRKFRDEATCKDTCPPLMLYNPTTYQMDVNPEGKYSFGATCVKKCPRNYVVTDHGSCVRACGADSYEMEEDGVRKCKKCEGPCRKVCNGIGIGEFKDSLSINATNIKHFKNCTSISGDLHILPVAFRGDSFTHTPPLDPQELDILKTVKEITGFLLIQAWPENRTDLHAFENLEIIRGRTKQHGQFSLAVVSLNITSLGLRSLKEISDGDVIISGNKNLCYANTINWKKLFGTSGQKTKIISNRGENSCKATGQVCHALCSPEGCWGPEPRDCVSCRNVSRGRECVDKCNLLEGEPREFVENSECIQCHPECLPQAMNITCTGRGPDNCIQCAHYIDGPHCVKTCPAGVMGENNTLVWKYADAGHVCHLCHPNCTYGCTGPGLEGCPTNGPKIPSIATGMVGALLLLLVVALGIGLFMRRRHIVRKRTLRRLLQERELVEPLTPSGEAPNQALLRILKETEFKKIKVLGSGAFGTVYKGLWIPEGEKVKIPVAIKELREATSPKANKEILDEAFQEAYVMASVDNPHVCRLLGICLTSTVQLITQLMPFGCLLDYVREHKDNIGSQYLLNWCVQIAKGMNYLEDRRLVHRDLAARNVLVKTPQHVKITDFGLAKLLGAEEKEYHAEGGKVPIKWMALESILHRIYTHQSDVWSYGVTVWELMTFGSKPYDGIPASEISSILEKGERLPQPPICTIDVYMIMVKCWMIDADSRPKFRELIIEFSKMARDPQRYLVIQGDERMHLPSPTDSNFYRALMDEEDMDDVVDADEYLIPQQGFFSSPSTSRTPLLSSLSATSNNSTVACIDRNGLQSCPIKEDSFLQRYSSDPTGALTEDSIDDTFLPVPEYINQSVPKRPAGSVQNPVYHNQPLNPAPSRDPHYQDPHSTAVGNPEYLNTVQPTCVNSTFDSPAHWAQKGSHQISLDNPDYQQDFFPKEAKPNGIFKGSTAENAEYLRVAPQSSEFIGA
T1 sequence (P00533 25-1210): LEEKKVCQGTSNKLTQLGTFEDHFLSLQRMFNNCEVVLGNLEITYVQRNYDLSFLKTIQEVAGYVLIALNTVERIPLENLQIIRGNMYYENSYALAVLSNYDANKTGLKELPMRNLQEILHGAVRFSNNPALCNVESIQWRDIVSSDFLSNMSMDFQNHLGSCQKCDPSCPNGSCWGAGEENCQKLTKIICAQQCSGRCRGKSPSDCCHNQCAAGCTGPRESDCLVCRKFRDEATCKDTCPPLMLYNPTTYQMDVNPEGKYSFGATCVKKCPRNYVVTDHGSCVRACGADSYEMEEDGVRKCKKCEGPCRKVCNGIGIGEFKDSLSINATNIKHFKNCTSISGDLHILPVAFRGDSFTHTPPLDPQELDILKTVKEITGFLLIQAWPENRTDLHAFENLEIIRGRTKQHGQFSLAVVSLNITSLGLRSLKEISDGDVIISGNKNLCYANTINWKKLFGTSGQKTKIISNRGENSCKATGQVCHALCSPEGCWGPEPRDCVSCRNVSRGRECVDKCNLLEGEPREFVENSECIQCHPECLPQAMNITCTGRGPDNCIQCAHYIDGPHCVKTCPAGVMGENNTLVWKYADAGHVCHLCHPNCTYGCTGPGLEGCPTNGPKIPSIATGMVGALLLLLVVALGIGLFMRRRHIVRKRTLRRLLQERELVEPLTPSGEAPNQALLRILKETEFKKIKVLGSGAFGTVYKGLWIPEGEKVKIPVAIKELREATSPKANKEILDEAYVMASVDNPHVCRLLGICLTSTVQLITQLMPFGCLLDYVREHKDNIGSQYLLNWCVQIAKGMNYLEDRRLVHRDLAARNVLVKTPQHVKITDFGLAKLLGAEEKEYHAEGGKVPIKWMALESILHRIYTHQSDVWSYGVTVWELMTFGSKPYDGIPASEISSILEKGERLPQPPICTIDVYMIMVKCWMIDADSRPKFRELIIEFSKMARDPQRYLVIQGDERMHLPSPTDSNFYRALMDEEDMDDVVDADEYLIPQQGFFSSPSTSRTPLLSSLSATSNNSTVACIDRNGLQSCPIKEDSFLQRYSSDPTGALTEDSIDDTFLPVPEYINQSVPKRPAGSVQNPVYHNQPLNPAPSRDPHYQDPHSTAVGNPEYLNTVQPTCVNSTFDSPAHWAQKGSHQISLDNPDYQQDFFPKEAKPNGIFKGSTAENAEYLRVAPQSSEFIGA
T3 sequence (P00533 with tags, fused parts or gaps INS770SVD): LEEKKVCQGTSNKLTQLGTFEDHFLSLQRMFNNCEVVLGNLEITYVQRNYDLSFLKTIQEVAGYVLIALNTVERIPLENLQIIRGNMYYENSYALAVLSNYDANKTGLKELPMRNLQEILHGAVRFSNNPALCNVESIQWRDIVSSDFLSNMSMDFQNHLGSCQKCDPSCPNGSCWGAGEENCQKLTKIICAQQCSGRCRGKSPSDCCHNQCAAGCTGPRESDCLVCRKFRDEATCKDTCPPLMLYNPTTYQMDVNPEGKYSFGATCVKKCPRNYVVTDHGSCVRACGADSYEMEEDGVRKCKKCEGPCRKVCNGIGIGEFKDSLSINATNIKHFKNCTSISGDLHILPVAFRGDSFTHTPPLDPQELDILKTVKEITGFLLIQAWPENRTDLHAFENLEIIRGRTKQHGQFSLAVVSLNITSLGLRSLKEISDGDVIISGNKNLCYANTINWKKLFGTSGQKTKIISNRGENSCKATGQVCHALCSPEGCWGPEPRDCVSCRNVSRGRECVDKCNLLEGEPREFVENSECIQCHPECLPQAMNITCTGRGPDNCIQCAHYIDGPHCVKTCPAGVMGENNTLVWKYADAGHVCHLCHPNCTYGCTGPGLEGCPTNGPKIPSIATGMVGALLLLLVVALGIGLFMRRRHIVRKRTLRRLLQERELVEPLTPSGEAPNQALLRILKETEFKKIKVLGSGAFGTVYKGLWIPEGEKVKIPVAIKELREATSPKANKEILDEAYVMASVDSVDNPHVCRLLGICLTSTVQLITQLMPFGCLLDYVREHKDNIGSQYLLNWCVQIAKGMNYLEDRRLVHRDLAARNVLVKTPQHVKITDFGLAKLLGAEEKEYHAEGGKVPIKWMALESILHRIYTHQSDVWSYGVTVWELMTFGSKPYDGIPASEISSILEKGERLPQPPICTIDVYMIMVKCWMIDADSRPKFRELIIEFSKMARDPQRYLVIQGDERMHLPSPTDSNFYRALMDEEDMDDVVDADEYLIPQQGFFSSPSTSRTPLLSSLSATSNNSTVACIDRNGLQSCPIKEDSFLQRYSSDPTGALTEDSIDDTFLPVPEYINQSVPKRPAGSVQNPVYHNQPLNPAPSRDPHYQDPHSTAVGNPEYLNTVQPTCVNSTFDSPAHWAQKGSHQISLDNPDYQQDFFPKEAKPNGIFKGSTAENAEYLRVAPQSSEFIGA
T2 sequence (P00533 with tags, fused parts or gaps INS769ASV): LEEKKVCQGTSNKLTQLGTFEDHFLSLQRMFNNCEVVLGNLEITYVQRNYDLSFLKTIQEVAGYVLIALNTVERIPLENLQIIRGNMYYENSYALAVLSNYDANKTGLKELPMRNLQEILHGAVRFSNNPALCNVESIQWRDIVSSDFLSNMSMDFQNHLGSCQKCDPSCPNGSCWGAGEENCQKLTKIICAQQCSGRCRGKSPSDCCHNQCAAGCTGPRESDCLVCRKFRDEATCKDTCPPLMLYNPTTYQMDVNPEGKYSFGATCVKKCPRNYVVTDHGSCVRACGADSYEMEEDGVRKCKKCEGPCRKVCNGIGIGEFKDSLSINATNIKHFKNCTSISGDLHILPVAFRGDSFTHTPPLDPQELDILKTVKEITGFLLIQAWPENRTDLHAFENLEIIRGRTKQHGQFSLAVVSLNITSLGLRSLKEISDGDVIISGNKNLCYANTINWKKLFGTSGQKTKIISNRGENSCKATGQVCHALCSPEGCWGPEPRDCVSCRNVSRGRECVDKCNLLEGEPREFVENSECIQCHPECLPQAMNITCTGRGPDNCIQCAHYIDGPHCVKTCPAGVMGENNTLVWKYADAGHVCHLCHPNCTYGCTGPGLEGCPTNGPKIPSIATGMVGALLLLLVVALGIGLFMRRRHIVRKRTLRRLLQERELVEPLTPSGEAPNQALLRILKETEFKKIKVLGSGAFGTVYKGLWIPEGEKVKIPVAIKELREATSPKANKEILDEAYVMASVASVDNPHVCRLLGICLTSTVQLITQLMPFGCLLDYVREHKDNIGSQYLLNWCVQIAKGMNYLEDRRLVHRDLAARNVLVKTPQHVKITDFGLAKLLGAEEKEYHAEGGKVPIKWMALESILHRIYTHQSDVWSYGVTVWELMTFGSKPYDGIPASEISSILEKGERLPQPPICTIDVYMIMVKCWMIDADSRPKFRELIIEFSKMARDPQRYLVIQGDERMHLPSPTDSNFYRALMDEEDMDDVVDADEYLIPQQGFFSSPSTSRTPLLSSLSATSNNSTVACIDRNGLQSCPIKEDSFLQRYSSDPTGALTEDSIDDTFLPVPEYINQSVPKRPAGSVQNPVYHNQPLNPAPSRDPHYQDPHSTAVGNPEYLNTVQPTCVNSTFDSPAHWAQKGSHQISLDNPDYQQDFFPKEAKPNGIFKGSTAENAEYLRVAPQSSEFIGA

Row | Structure (SMILES) | IC50 (EGFR WT (Ba/F3 cells)) [nM] | IC50 [1] [nM] | IC50 [2] [nM] | IC50 [3] [nM]
1 | COc1c(Cl)cccc1Nc1c(-c2ccncc2F)[nH]c2c1C(=O)NC[C@H]2CC(N)=O [Compound 489] | > 1000 | 100 to 1000 | 100 to 1000 | 100 to 1000
2 | COc1c(Cl)cccc1Nc1c(-c2ccncc2F)[nH]c2c1C(=O)NC[C@@H]2CC(C)(C)O [Compound 496, (7S)-3-[(3-chloro-2-methoxyphenyl)amino]-2-(3-fluoropyridin-4-yl)-7-(2-hydroxy-2-methylpropyl)-1H,5H,6H,7H-pyrrolo[3,2-c]pyridin-4-one] | > 1000 | 100 to 1000 | 100 to 1000 | 100 to 1000
3 | COc1ncc2nccc(-c3[nH]c4c(c3Nc3cccc(Cl)c3OC)C(=O)N[C@@H](C(F)(F)F)C4)c2n1 [Compound 507, (6R)-3-[(3-chloro-2-methoxyphenyl)amino]-2-{2-methoxypyrido[3,2-d]pyrimidin-8-yl}-6-(trifluoromethyl)-1H,5H,6H,7H-pyrrolo[3,2-c]pyridin-4-one] | 100 to 1000 | < 100 | < 100 | < 100
4 | COc1ncc2nccc(-c3[nH]c4c(c3Nc3cccc(Cl)c3OC)C(=O)N[C@H](C(F)(F)F)C4)c2n1 [Compound 508, (6S)-3-[(3-chloro-2-methoxyphenyl)amino]-2-{2-methoxypyrido[3,2-d]pyrimidin-8-yl}-6-(trifluoromethyl)-1H,5H,6H,7H-pyrrolo[3,2-c]pyridin-4-one] | > 1000 | > 1000 | 100 to 1000 | 100 to 1000
5 | COc1c(Cl)cccc1Nc1c(-c2ccnc(NCc3ccn(C)n3)n2)[nH]c2c1C(=O)NCC2 [Compound 709, 3-[(3-chloro-2-methoxyphenyl)amino]-2-(2-[[(1-methylpyrazol-3-yl)methyl]amino]pyrimidin-4-yl)-1H,5H,6H,7H-pyrrolo[3,2-c]pyridin-4-one] | 100 to 1000 | < 100 | < 100 | 100 to 1000
6 | COc1ccc2nccc(-c3[nH]c4c(c3Nc3cccc(Cl)c3OC)C(=O)NC[C@@H]4CCF)c2n1 [Compound 744, (S)-3-((3-chloro-2-methoxyphenyl)amino)-7-(2-fluoroethyl)-2-(6-methoxy-1,5-naphthyridin-4-yl)-1,5,6,7-tetrahydro-4H-pyrrolo[3,2-c]pyridin-4-one] | < 100 | < 100 | < 100 | < 100
7 | COc1ccc2nccc(-c3[nH]c4c(c3Nc3cccc(Cl)c3OC)C(=O)NC[C@H]4CCF)c2n1 [Compound 745, (R)-3-((3-chloro-2-methoxyphenyl)amino)-7-(2-fluoroethyl)-2-(6-methoxy-1,5-naphthyridin-4-yl)-1,5,6,7-tetrahydro-4H-pyrrolo[3,2-c]pyridin-4-one] | < 100 | < 100 | < 100 | < 100
8 | COc1c(Cl)cccc1Nc1c(-c2ccncc2F)[nH]c2c1C(=O)NCC21COC1 [Compound 748, 3′-[(3-chloro-2-methoxyphenyl)amino]-2′-(3-fluoropyridin-4-yl)-5′,6′-dihydro-1′H-spiro[oxetane-3,7′-pyrrolo[3,2-c]pyridin]-4′-one] | > 1000 | 100 to 1000 | 100 to 1000 | 100 to 1000
9 | COc1c(Cl)cccc1Nc1c(-c2ccnc(N)n2)[nH]c2c1C(=O)NC(CO)C2 (stereo not shown) [Compound 751, 2-(2-aminopyrimidin-4-yl)-3-[(3-chloro-2-methoxyphenyl)amino]-6-(hydroxymethyl)-1H,5H,6H,7H-pyrrolo[3,2-c]pyridin-4-one] | > 1000 | 100 to 1000 | 100 to 1000 | 100 to 1000
10 | COc1ccc2nccc(-c3[nH]c4c(c3Nc3cccc(Cl)c3OC)C(=O)NCC43CCC3)c2n1 [Compound 760, 3′-((3-chloro-2-methoxyphenyl)amino)-2′-(6-methoxy-1,5-naphthyridin-4-yl)-5′,6′-dihydrospiro[cyclobutane-1,7′-pyrrolo[3,2-c]pyridin]-4′(1′H)-one] | < 100 | < 100 | < 100 | < 100
11 | COC[C@H]1CNC(=O)c2c1[nH]c(-c1ccnc3ccc(OC)nc13)c2Nc1cccc(Cl)c1OC [Compound 764, (7S)-3-[(3-chloro-2-methoxyphenyl)amino]-2-(6-methoxy-1,5-naphthyridin-4-yl)-7-(methoxymethyl)-1H,5H,6H,7H-pyrrolo[3,2-c]pyridin-4-one] | < 100 | < 100 | < 100 | < 100
12 | COc1c(Cl)cccc1Nc1c(-c2ccnc3ccc(OC4CC4)nc23)[nH]c2c1C(=O)NC[C@H]2C [Compound 769, (R)-3-((3-chloro-2-methoxyphenyl)amino)-2-(6-cyclopropoxy-1,5-naphthyridin-4-yl)-7-methyl-1,5,6,7-tetrahydro-4H-pyrrolo[3,2-c]pyridin-4-one] | < 100 | < 100 | < 100 | < 100
13 | COc1c(Cl)cccc1Nc1c(-c2ccnc3ccc(OC4CC4)nc23)[nH]c2c1C(=O)NC[C@@H]2C [Compound 770, (S)-3-((3-chloro-2-methoxyphenyl)amino)-2-(6-cyclopropoxy-1,5-naphthyridin-4-yl)-7-methyl-1,5,6,7-tetrahydro-4H-pyrrolo[3,2-c]pyridin-4-one] | < 100 | < 100 | < 100 | < 100
14 | COc1c(Cl)cccc1Nc1c(-c2ccnc3cnc(OC4CC4)nc23)[nH]c2c1C(=O)NCC2 [Compound 771, 3-[(3-chloro-2-methoxyphenyl)amino]-2-{2-cyclopropoxypyrido[3,2-d]pyrimidin-8-yl}-1H,5H,6H,7H-pyrrolo[3,2-c]pyridin-4-one] | < 100 | < 100 | < 100 | < 100
15 | COc1cc2c(-c3[nH]c4c(c3Nc3cccc(Cl)c3OC)C(=O)NCC4)ccnc2cn1 [Compound 772, 3-[(3-chloro-2-methoxyphenyl)amino]-2-(6-methoxy-1,7-naphthyridin-4-yl)-1H,5H,6H,7H-pyrrolo[3,2-c]pyridin-4-one] | > 1000 | > 1000 | > 1000 | > 1000
16 | COc1ccc2nccc(-c3[nH]c4c(c3Nc3cccc(Cl)c3OC)C(=O)NCC4)c2c1 [Compound 773, 3-[(3-chloro-2-methoxyphenyl)amino]-2-(6-methoxyquinolin-4-yl)-1H,5H,6H,7H-pyrrolo[3,2-c]pyridin-4-one] | > 1000 | > 1000 | > 1000 | > 1000
17 | COc1c(Cl)cccc1Nc1c(-c2ccnc3cnc(C4CC4)nc23)[nH]c2c1C(=O)NCC2 [Compound 776, 3-[(3-chloro-2-methoxyphenyl)amino]-2-{2-cyclopropylpyrido[3,2-d]pyrimidin-8-yl}-1H,5H,6H,7H-pyrrolo[3,2-c]pyridin-4-one] | 100 to 1000 | < 100 | < 100 | < 100
18 | COc1c(Cl)cccc1Nc1c(-c2ccnc3ccc(OC4COC4)nc23)[nH]c2c1C(=O)NCC21CC1 [Compound 777, 3′-[(3-chloro-2-methoxyphenyl)amino]-2′-[6-(oxetan-3-yloxy)-1,5-naphthyridin-4-yl]-5′,6′-dihydro-1′H-spiro[cyclopropane-1,7′-pyrrolo[3,2-c]pyridin]-4′-one] | 100 to 1000 | < 100 | < 100 | < 100
19 | COc1c(F)cccc1Nc1c2c(n(C)c1-c1ccncc1F)CCNC2=O [Compound 789, 3-[(3-fluoro-2-methoxyphenyl)amino]-2-(3-fluoropyridin-4-yl)-1-methyl-5H,6H,7H-pyrrolo[3,2-c]pyridin-4-one] | > 1000 | > 1000 | > 1000 | > 1000
